Data from patent US20240083861A1, “HSD17B13 INHIBITORS AND USES THEREOF” (FL2022-001, Inc., priority 2020, published 2024).
pIC50: −log10 of the molar value.

molecular target: T1, Recombinant human HSD17B13 enzyme (Homo sapiens, UniProt Q7Z5P4); test: HSD17b13 NAD(P)H-Glo biochemical assay; settings: 50 uM estradiol, 1 mM NAD+, NAD(P)H-Glo luminescence; read-out: HSD17β13 IC50
T1 sequence (Q7Z5P4 20-300): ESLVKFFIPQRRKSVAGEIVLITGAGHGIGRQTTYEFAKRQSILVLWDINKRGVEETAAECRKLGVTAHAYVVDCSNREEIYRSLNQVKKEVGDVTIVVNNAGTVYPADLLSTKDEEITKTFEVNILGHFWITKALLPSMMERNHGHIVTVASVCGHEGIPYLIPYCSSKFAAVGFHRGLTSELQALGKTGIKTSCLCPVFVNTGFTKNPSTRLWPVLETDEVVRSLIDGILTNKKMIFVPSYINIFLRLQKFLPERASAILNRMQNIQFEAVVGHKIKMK
Summary of the method: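 Luminescent NAD(P)H-Glo read-out, taken after 1 hour at RT, measured cofactor reduction. Substrate and cofactor were estradiol at 50 uM and NAD+ at 1 mM final, reacted with the recombinant human enzyme for 3 hours at 37° C in 20 mM Tris pH7.4, 0.002% Tween-20, 0.02% BSA. Compound was pre-incubated with enzyme for 20 minutes at RT.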

Row | pIC50 | SMILES
1 | > 7.00 | CN1CCN(c2cc3c(cn2)c(-c2cc(C(F)(F)F)c(F)c(O)c2F)nn3C)C(C2CCOCC2)C1 (stereo not drawn) [Compound 9.128, 2,6-Difluoro-3-(1-methyl-6-(4-methyl-2-(tetrahydro-2H-pyran-4-yl)piperazin-1-yl)-1H-pyrazolo[4,3-c]pyridin-3-yl)-5-(trifluoromethyl)phenol]
2 | > 7.00 | Cc1cc(-c2n[nH]c3cc(C4=CCN(S(C)(=O)=O)CC4)ccc23)c(F)c(O)c1F [Compound 14.02, 2,6-Difluoro-3-methyl-5-(6-(1-(methylsulfonyl)-1,2,3,6-tetrahydropyridin-4-y1)-1H-indazol-3-y1)phenol]
3 | > 7.00 | Cn1nc(-c2cc(C(F)(F)F)c(F)c(O)c2F)c2cnc(N3CC4CCC3CO4)cc21 (stereo not drawn) [Compound 9.28, 3-(6-(2-Oxa-5-azabicyclo[2.2.2]octan-5-yl)-1-methyl-1H-pyrazolo[4,3-c]pyridin-3-yl)-2,6-difluoro-5-(trifluoromethyl)phenol]
4 | > 7.00 | Cn1nc(-c2cc(C(F)(F)F)c(F)c(O)c2F)c2cnc(N3CCOC(c4cc[nH]n4)C3)nc21 (stereo not drawn) [Compound 18.82, 3-(6-(2-(1H-Pyrazol-3-yl)morpholino)-1-methyl-1H-pyrazolo[3,4-d]pyrimidin-3-y1)-2,6-difluoro-5-(trifluoromethyl)phenol]
5 | > 7.00 | Cn1nc(-c2cc(C(F)(F)F)c(F)c(O)c2F)c2cnc(N3CCN(C(=O)Nc4ccccc4)CC3)nc21 [Compound 18.116, 4-(3-(2,4-Difluoro-3-hydroxy-5-(trifluoromethyl)phenyl)-1-methyl-1H-pyrazolo[3,4-d]pyrimidin-6-yl)-N-phenylpiperazine-1-carboxamide]
6 | 6.00 to 7.00 | CS(=O)(=O)C1CN(c2cc3nc(-c4cc(O)c(F)c(F)c4)oc3cc2Cl)C1 [Compound 5.01, 5-(6-Chloro-5-(3-(methylsulfonyl)azetidine-1-yl)benzo[d]oxazol-2-yl)-2,3-difluorophenol]
7 | > 7.00 | COC1(C)CN(c2ncc3c(-c4cc(C(F)(F)F)c(F)c(O)c4F)nn(C)c3n2)C1 [Compound 9.13, 2,6-Difluoro-3-(6-(3-methoxy-3-methylazetidin-1-yl)-1-methyl-1H-pyrazolo[3,4-d]pyrimidin-3-yl)-5-(trifluoromethyl)phenol]
8 | > 7.00 | CC(C)C1(O)CCN(c2ncc3c(-c4cc(C(F)(F)F)c(F)c(O)c4F)nn(C)c3n2)CC1 [Compound 18.67, 1-(3-(2,4-Difluoro-3-hydroxy-5-(trifluoromethyl)phenyl)-1-methyl-1H-pyrazolo[3,4-d]pyrimidin-6-yl)-4-isopropylpiperidin-4-ol]
9 | > 7.00 | CC1(C#N)CN(c2ncc3c(-c4cc(O)c(F)c(C(F)(F)F)c4)n[nH]c3n2)C1 [Compound 10.02, 1-(3-(4-Fluoro-3-hydroxy-5-(trifluoromethyl)phenyl)-1H-pyrazolo[3,4-d]pyrimidin-6-yl)-3-methylazetidine-3-carbonitrile]
10 | > 7.00 | O=C(NC1CCCC1)c1ccc2oc(-c3cc(O)c(F)c(F)c3)nc2c1 [Compound 1.02, N-Cyclopentyl-2-(3,4-difluoro-5-hydroxyphenyl)benzo[d]oxazole-5-carboxamide]
11 | > 7.00 | CN(c1nc2c(cc1F)c(-c1cc(C(F)(F)F)c(F)c(O)c1F)nn2C)C1CCOCC1 [Compound 9.103, 2,6-Difluoro-3-(5-fluoro-1-methyl-6-(methyl(tetrahydro-2H-pyran-4-yl)amino)-1H-pyrazolo[3,4-b]pyridin-3-yl)-5-(trifluoromethyl)phenol]
12 | > 7.00 | Cn1nc(-c2cc(O)c(F)c(C(F)(F)F)c2)c2ccc(C3=CCN(S(C)(=O)=O)CC3)cc21 [Compound 14.01, 2-Fluoro-5-(1-methyl-6-(1-(methylsulfonyl)-1,2,3,6-tetrahydropyridin-4-y1)-1H-indazol-3-y1)-3-(trifluoromethyl)phenol]
13 | > 7.00 | O=C(NC12CC(C1)C2)c1ccc2oc(-c3cc(O)cc(C(F)(F)F)c3)nc2c1 [Compound 2.01, N-(Bicyclo[1.1.1]pentan-1-yl)-2-(3-hydroxy-5-(trifluoromethyl)phenyl)benzo[d]oxa-zole-5-carboxamide]
14 | > 7.00 | Cn1nc(-c2cc(C(F)(F)F)c(F)c(O)c2F)c2cnc(N3CCC(O)(c4ccccn4)CC3)nc21 [Compound 18.96, 1-(3-(2,4-Difluoro-3-hydroxy-5-(trifluoromethyl)phenyl)-1-methyl-1H-pyrazolo[3,4-d]pyrimidin-6-yl)-4-(pyridin-2-y1)piperidin-4-ol]
15 | > 7.00 | COC1(CO)CCN(c2ncc3c(-c4cc(C(F)(F)F)c(F)c(O)c4F)nn(C)c3n2)CC1 [Compound 18.100, 2,6-Difluoro-3-(6-(4-(hydroxymethyl)-4-methoxypiperidin-1-y1)-1-methyl-1H-pyrazolo[3,4-d]pyrimidin-3-yl)-5-(trifluoromethyl)phenol]
16 | 6.00 to 7.00 | Cn1nc(-c2cc(C(F)(F)F)c(F)c(O)c2F)c2cnc(N3CC4(CCCNC4=O)C3)nc21 [Compound 18.12, 2-(3-(2,4-Difluoro-3-hydroxy-5-(trifluoromethyl)phenyl)-1-methyl-1H-pyrazolo[3,4-d]pyrimidin-6-yl)-2,6-diazaspiro[3.5]nonan-5-one]
17 | > 7.00 | O=C(NC1CCC1)c1ccc2oc(-c3cc(O)c(F)c(F)c3)nc2c1 [Compound 1, N-Cyclobutyl-2-(3,4-difluoro-5-hydroxyphenyl)benzo[d]oxazole-5-carboxamide]
18 | > 7.00 | Cn1nc(-c2cc(C(F)(F)F)c(F)c(O)c2F)c2cnc(N3CCN(C(=O)C4CCCCC4)CC3)nc21 [Compound 18.115, Cyclohexyl(4-(3-(2,4-difluoro-3-hydroxy-5-(trifluoromethyl)phenyl)-1-methyl-1H-pyrazolo[3,4-d]pyrimidin-6-yl)piperazin-1-yl)methanone]
19 | > 7.00 | Cn1nc(-c2cc(C(F)(F)F)c(F)c(O)c2F)c2cnc(N3CCC4(CC3)CC(=O)N4)nc21 [Compound 18.16, 7-(3-(2,4-Difluoro-3-hydroxy-5-(trifluoromethyl)phenyl)-1-methyl-1H-pyrazolo[3,4-d]pyrimidin-6-yl)-1,7-diazaspiro[3.5]nonan-2-one]
20 | > 7.00 | Cn1nc(-c2cc(C(F)(F)F)c(F)c(O)c2F)c2cnc(N3CCC(c4ccccc4)CC3)nc21 [Compound 18.44, 2,6-Difluoro-3-(1-methyl-6-(4-phenylpiperidin-1-y1)-1H-pyrazolo[3,4-d]pyrimidin-3-y1)-5-(trifluoromethyl)phenol]
21 | 6.00 to 7.00 | Cn1nc(-c2cc(C(F)(F)F)c(F)c(O)c2F)c2cnc(N3CCC3(C)C)nc21 [Compound 9.05, 3-(6-(2,2-Dimethylazetidin-1-yl)-1-methyl-1H-pyrazolo[3,4-d]pyrimidin-3-yl)-2,6-difluoro-5-(trifluoromethyl)phenol]
22 | 6.00 to 7.00 | CN(C)CC1CCN(c2ncc3c(-c4cc(C(F)(F)F)c(F)c(O)c4F)nn(C)c3n2)CC1 [Compound 18.34, 3-(6-(4-((Dimethylamino)methyl)piperidin-1-y1)-1-methyl-1H-pyrazolo[3,4-d]pyrimidin-3-y1)-2,6-difluoro-5-(trifluoromethyl)phenol]
23 | > 7.00 | Cn1nc(-c2cc(C(F)(F)F)c(F)c(O)c2F)c2cnc(N3CCOCC3C3CCC3)cc21 (stereo not drawn) [Compound 9.67, 3-(6-(3-Cyclobutylmorpholino)-1-methyl-1H-pyrazolo[4,3-c]pyridin-3-yl)-2,6-difluoro-5-(trifluoromethyl)phenol]
24 | > 7.00 | Cn1nc(-c2cc(C(F)(F)F)c(F)c(O)c2F)c2cnc(N3CCOCC34CCCC4)cc21 [Compound 9.84, 2,6-Difluoro-3-(1-methyl-6-(9-oxa-6-azaspiro[4.5]decan-6-yl)-1H-pyrazolo[4,3-c]pyridin-3-yl)-5-(trifluoromethyl)phenol]
25 | 6.00 to 7.00 | CN(c1cc2c(nn1)c(-c1cc(C(F)(F)F)c(F)c(O)c1F)nn2C)C1CCOCC1 [Compound 9.120, 2,6-Difluoro-3-(1-methyl-6-(methyl(tetrahydro-2H-pyran-4-yl)amino)-1H-pyrazolo[4,3-c]pyridazin-3-yl)-5-(trifluoromethyl)phenol]
26 | > 7.00 | CN(c1ncc2c(-c3cc(C(F)(F)F)c(F)c(O)c3F)nn(C)c2c1Cl)C1CCOCC1 [Compound 12.08, 3-(7-Chloro-1-methyl-6-(methyl(tetrahydro-2H-pyran-4-yl)amino)-1H-pyrazolo[4,3-c]pyridin-3-yl)-2,6-difluoro-5-(trifluoromethyl)phenol]
27 | > 7.00 | CN1CCN(c2cc3c(cn2)c(-c2cc(C(F)(F)F)c(F)c(O)c2F)nn3C)CC1=O [Compound 9.68, 4-(3-(2,4-Difluoro-3-hydroxy-5-(trifluoromethyl)phenyl)-1-methyl-1H-pyrazolo[4,3-c]pyridin-6-yl)-1-methylpiperazin-2-one]
28 | > 7.00 | COCC1COCCN1c1cc2c(cn1)c(-c1cc(C(F)(F)F)c(F)c(O)c1F)nn2C (stereo not drawn) [Compound 9.60, 2,6-Difluoro-3-(6-(3-(methoxymethyl)morpholino)-1-methyl-1H-pyrazolo[4,3-c]pyridin-3-yl)-5-(trifluoromethyl)phenol]
29 | > 7.00 | CS(=O)(=O)N1CCN(c2ccc3oc(-c4cc(O)c(F)c(C(F)(F)F)c4)nc3c2)CC1 [Compound 6, 2-Fluoro-5-(5-(4-(methylsulfonyl)piperazin-1-yl)benzo[d]oxazol-2-yl)-3-(trifluoromethyl)phenol]

same assay, conditions: at 10 uM compound; read-out: HSD17β13 % inhibition at 10 uM

Row | inhibition at 10 µM | SMILES
30 | 36% | CS(=O)(=O)N1CCN(c2ccc3c(-c4cc(O)cc(C(F)(F)F)c4F)n[nH]c3c2)CC1 [Compound 9.22, 4-Fluoro-3-(6-(4-(methylsulfonyl)piperazin-1-yl)-1H-indazol-3-yl)-5-(trifluoromethyl)phenol]
